The values that follow come from patent publication US8637499B2, “Benzoxazepines as inhibitors of PI3K/mTOR and methods of their use and manufacture” (Exelixis, Inc., priority 2009, dated 2014).

One assay addresses mTORC1 (mTOR/GbL/Raptor) (Homo sapiens, UniProt P42345). Kind of assay: mTOR/GbL/Raptor (mTORC1) ELISA Assay. Type of assay: biochemical. Conditions: 0.2 nM mTORC1, 10 μM ATP, 50 nM NHis-tagged 4E-BP1; phosphorylation of 4E-BP1; read-out: IC50. An outline of the steps:
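Detection used Ni-chelate capture of His-tagged 4E-BP1, then anti-phospho-4E-BP1 and HRP anti-IgG with luminescent ELISA substrate. Reactions ran 120 min at ambient temperature with 0.2 nM mTORC1, 10 μM ATP, 50 nM 4E-BP1, 10 mM MnCl2, pH 7.2 Hepes.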
(ELISA stands for enzyme-linked immunosorbent assay.)

The next assay concerns the target PI3Kα (Homo sapiens, UniProt P42336). The assay is described as follows: PI3K Biochemical Assays (ATP consumption, luciferase-luciferin chemiluminescence). As to conditions: PI3Kα 1.5 nM, ATP 1 μM, PIP2 10 μM; percent of ATP consumed. An outline of the steps: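 Enzyme (1.5 nM), PIP2 substrate (10 μM) and ATP (1 μM) react about 2 h at room temperature in Tris buffer pH 7.5 with MgCl2, EGTA, DTT and CHAPS. Remaining ATP detected by Kinase-Glo luminescence; total consumption limited to 40-60%.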

Molecules are shown by their SMILES.

One may read the IC50 as the point on the concentration scale where inhibition reaches its midpoint.

Chain of PI3Kα (P42336 whole entry): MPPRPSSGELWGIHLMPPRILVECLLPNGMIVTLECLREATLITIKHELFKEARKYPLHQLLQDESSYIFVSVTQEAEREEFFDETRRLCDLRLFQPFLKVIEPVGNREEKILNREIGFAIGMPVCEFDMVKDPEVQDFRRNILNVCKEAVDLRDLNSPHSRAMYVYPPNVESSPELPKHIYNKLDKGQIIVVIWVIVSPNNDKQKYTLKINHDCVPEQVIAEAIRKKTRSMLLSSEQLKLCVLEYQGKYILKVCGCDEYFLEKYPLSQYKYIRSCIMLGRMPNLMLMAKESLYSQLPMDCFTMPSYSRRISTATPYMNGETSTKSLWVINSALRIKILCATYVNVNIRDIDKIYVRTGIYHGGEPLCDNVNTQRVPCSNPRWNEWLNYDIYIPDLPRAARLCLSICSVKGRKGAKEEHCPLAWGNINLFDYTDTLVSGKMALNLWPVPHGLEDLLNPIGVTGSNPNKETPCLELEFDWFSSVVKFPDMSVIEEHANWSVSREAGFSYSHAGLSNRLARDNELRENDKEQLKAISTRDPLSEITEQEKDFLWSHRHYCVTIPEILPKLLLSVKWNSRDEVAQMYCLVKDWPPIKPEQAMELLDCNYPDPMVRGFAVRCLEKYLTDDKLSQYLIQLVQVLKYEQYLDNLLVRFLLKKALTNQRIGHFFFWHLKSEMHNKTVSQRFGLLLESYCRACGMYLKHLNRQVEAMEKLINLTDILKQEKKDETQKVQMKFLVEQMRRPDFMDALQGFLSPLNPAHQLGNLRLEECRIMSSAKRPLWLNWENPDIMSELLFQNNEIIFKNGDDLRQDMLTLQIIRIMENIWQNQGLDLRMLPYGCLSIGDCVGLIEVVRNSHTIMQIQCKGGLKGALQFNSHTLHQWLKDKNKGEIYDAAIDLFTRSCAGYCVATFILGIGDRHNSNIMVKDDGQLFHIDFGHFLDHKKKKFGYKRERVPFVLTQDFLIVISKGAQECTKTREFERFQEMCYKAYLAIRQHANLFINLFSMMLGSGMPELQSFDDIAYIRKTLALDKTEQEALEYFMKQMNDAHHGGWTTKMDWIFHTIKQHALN
Chain of PI3Kα (P27986 whole entry partner): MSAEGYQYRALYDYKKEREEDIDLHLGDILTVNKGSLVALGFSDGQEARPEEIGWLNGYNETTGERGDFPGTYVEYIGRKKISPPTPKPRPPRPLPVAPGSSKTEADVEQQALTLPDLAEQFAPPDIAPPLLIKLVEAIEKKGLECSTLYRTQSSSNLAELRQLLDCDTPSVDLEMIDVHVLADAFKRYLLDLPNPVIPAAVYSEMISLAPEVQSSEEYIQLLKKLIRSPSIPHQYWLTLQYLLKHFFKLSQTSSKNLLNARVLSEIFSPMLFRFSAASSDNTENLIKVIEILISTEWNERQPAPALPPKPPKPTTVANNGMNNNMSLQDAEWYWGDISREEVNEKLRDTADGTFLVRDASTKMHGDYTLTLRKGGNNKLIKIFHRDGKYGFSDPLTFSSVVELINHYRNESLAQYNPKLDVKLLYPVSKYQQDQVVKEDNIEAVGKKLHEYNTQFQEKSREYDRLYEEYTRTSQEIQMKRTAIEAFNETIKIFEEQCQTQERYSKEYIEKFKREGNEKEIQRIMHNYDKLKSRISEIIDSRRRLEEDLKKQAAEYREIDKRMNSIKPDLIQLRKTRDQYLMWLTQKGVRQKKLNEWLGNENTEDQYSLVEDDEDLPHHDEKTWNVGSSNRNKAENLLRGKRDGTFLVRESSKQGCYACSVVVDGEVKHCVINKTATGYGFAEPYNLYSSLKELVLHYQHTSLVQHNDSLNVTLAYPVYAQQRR

As to `Cc1nc2ccc(-c3ccc4c(c3)CN(C(=O)N3CCC(C)(O)CC3)CCO4)cc2[nH]1` [Compound 79, 4-methyl-1-{[7-(2-methyl-1H-benzimidazol-6-yl)-2,3-dihydro-1,4-benzoxazepin-4(5H)-yl]carbonyl}piperidin-4-ol], the figures for the IC50 at mTORC1 (mTOR/GbL/Raptor) and against PI3Kα were 0.05 to 0.25 µM and 0.5 to 1 µM, respectively.
The corresponding values for `CC1CCN(C(=O)N2CCOc3ccc(-c4cnc(N)nc4)cc3C2)CC1` [Compound 3, 5-{4-[(4-methylpiperidin-1-yl)carbonyl]-2,3,4,5-tetrahydro-1,4-benzoxazepin-7-yl}pyrimidin-2-amine] are 0.7 to 2.6 µM and 1 to 3 µM.
Take `Cc1nc2ccc(-c3ccc4c(c3)CN(C(=O)N3CCCC3C)CCO4)cc2[nH]1` (centres unmarked) [Compound 99, 7-(2-methyl-1H-benzimidazol-6-yl)-4-[(2-methylpyrrolidin-1-yl)carbonyl]-2,3,4,5-tetrahydro-1,4-benzoxazepine]: the IC50 at mTORC1 (mTOR/GbL/Raptor) lay in the range of 0.7 to 2.6 µM; against PI3Kα, 0.5 to 1 µM.
The corresponding values for `Cc1nc2ccc(-c3ccc4c(c3)CN(C(=O)N3CCC(C)(C(N)=O)CC3)CCO4)cc2[nH]1` [Compound 135, 4-methyl-1-{[7-(2-methyl-1H-benzimidazol-6-yl)-2,3-dihydro-1,4-benzoxazepin-4(5H)-yl]carbonyl}piperidine-4-carboxamide] are 0.05 to 0.25 µM and 1 to 3 µM.
For the compound `COC(=O)Nc1nc2ccc(-c3ccc4c(c3)CN(C(=O)N3CCC(O)(CF)CC3)CCO4)cc2[nH]1` [Compound 15, methyl [6-(4-{[4-(fluoromethyl)-4-hydroxypiperidin-1-yl]carbonyl}-2,3,4,5-tetrahydro-1,4-benzoxazepin-7-yl)-1H-benzimidazol-2-yl]carbamate], the figures for the IC50 on mTORC1 (mTOR/GbL/Raptor) and against PI3Kα were 0.05 to 0.25 µM and 0.2 to 0.5 µM, respectively.
For `Cc1nc2ccc(-c3ccc4c(c3)CN(C(=O)N3CCC(=O)CC3c3ccccc3)CCO4)cc2[nH]1` (centres unmarked) [Compound 111, 1-{[7-(2-methyl-1H-benzimidazol-6-yl)-2,3-dihydro-1,4-benzoxazepin-4(5H)-yl]carbonyl}-2-phenylpiperidin-4-one] the same measures were ≤ 0.05 µM and 0.075 to 0.2 µM.
The corresponding values for `COC(=O)Nc1nc2cc(-c3ccc4c(c3)CN(C(=O)N3CC[C@H](O)C[C@@H]3c3ccc(F)cc3)CCO4)ccc2[nH]1` (racemic) [Compound 17, (±)-methyl [5-(4-{[(2R,4S)-2-(4-fluorophenyl)-4-hydroxypiperidin-1-yl]carbonyl}-2,3,4,5-tetrahydro-1,4-benzoxazepin-7-yl)-1H-benzimidazol-2-yl]carbamate] are 0.7 to 2.6 µM and 0.075 to 0.2 µM.
For `Cc1nc2ccc(-c3ccc4c(c3)CN(C(=O)N3CCC(c5noc(C6CC6)n5)CC3)CCO4)cc2[nH]1` [Compound 163, 4-{[4-(5-cyclopropyl-1,2,4-oxadiazol-3-yl)piperidin-1-yl]carbonyl}-7-(2-methyl-1H-benzimidazol-6-yl)-2,3,4,5-tetrahydro-1,4-benzoxazepine] the same measures were 0.25 to 0.7 µM and 1 to 3 µM.
In the case of `Cc1nc2ccc(-c3ccc4c(c3)CN(C(=O)N3CCCCC3c3cc(F)cc(Cl)c3)CCO4)cc2[nH]1` (centres unmarked) [Compound 116, 4-{[2-(3-chloro-5-fluorophenyl)piperidin-1-yl]carbonyl}-7-(2-methyl-1H-benzimidazol-6-yl)-2,3,4,5-tetrahydro-1,4-benzoxazepine], the IC50 on mTORC1 (mTOR/GbL/Raptor) is ≤ 0.05 µM; against PI3Kα, 0.075 to 0.2 µM.
For `Cc1ccc(OCC2CN(C(=O)N3CCOc4ccc(-c5ccc6nc(C)[nH]c6c5)cc4C3)CCO2)cc1` (centres unmarked) [Compound 154, 7-(2-methyl-1H-benzimidazol-6-yl)-4-[(2-{[(4-methylphenyl)oxy]methyl}morpholin-4-yl)carbonyl]-2,3,4,5-tetrahydro-1,4-benzoxazepine] the same measures were 0.7 to 2.6 µM and 1 to 3 µM.
For `Cc1nc2ccc(-c3ccc4c(c3)CN(C(=O)N3CCC(C)(F)CC3)CCO4)cc2[nH]1` [Compound 83, 4-[(4-fluoro-4-methylpiperidin-1-yl)carbonyl]-7-(2-methyl-1H-benzimidazol-6-yl)-2,3,4,5-tetrahydro-1,4-benzoxazepine] the same measures were 0.05 to 0.25 µM and 1 to 3 µM.
The corresponding values for `Cc1nc2ccc(-c3ccc4c(c3)CN(C(=O)N3CCCCCC3c3ccccc3)CCO4)cc2[nH]1` (centres unmarked) [Compound 122, 7-(2-methyl-1H-benzimidazol-5-yl)-4-[(2-phenylazepan-1-yl)carbonyl]-2,3,4,5-tetrahydro-1,4-benzoxazepine] are 0.25 to 0.7 µM and 0.5 to 1 µM.
With `COC(=O)Nc1nc2ccc(-c3ccc4c(c3)CN(C(=O)N3CCC(C)(O)CC3)CCO4)cc2[nH]1` [Compound 24, methyl (6-{4-[(4-hydroxy-4-methylpiperidin-1-yl)carbonyl]-2,3,4,5-tetrahydro-1,4-benzoxazepin-7-yl}-1H-benzimidazol-2-yl)carbamate], the results for the half-inhibitory concentration (IC50) at mTORC1 (mTOR/GbL/Raptor) and on PI3Kα were 0.25 to 0.7 µM and 0.2 to 0.5 µM, respectively.
For the compound `Cc1nc2ccc(-c3ccc4c(c3)CN(C(=O)N(Cc3ccccc3)C(C)C)CCO4)cc2[nH]1` [Compound 103, 7-(2-methyl-1H-benzimidazol-6-yl)-N-(1-methylethyl)-N-(phenylmethyl)-2,3-dihydro-1,4-benzoxazepine-4(5H)-carboxamide], the values for the IC50 on mTORC1 (mTOR/GbL/Raptor) and against PI3Kα were 0.05 to 0.25 µM and 1 to 3 µM, respectively.
The corresponding values for `Cc1nc2ccc(-c3ccc4c(c3)CN(C(=O)N3CCC(=O)CC3c3cccc(F)c3)CCO4)cc2[nH]1` (centres unmarked) [Compound 125, 2-(3-fluorophenyl)-1-{[7-(2-methyl-1H-benzimidazol-6-yl)-2,3-dihydro-1,4-benzoxazepin-4(5H)-yl]carbonyl}piperidin-4-one] are ≤ 0.05 µM and 0.075 to 0.2 µM.
For `COC(=O)Nc1nc2ccc(-c3ccc4c(c3)CN(C(=O)N3CCC(O)(C(F)(F)F)CC3)CCO4)cc2[nH]1` [Compound 22, methyl [6-(4-{[4-hydroxy-4-(trifluoromethyl)piperidin-1-yl]carbonyl}-2,3,4,5-tetrahydro-1,4-benzoxazepin-7-yl)-1H-benzimidazol-2-yl]carbamate] the same measures were ≤ 0.05 µM and 0.2 to 0.5 µM.
For `Cc1nc2ccc(-c3ccc4c(c3)CN(C(=O)N3CCCCC3c3ccc(C(F)(F)F)cc3)CCO4)cc2[nH]1` (centres unmarked) [Compound 120, 7-(2-methyl-1H-benzimidazol-6-yl)-4-({2-[4-(trifluoromethyl)phenyl]piperidin-1-yl}carbonyl)-2,3,4,5-tetrahydro-1,4-benzoxazepine] the same measures were ≤ 0.05 µM and 0.2 to 0.5 µM.
With `Cc1nc2ccc(-c3ccc4c(c3)CN(C(=O)N3CCCc5ccccc53)CCO4)cc2[nH]1` [Compound 85, 4-(3,4-dihydroquinolin-1(2H)-ylcarbonyl)-7-(2-methyl-1H-benzimidazol-6-yl)-2,3,4,5-tetrahydro-1,4-benzoxazepine], the IC50 on mTORC1 (mTOR/GbL/Raptor) fell in the range of 0.05 to 0.25 µM; against PI3Kα it was 1 to 3 µM.
The corresponding values for `COC(=O)Nc1nc2ncc(-c3ccc4c(c3)CN(C(=O)N3CCC(O)(CF)CC3)CCO4)cc2[nH]1` [Compound 38, methyl [6-(4-{[4-(fluoromethyl)-4-hydroxypiperidin-1-yl]carbonyl}-2,3,4,5-tetrahydro-1,4-benzoxazepin-7-yl)-1H-imidazo[4,5-b]pyridin-2-yl]carbamate] are 0.05 to 0.25 µM and 0.075 to 0.2 µM.
On to `Cc1nc2ccc(-c3ccc4c(c3)CN(C(=O)N3CCc5ccccc5C3)CCO4)cc2[nH]1` [Compound 113, 4-(3,4-dihydroisoquinolin-2(1H)-ylcarbonyl)-7-(2-methyl-1H-benzimidazol-6-yl)-2,3,4,5-tetrahydro-1,4-benzoxazepine], for which the IC50 on mTORC1 (mTOR/GbL/Raptor) lay within 0.05 to 0.25 µM; on PI3Kα, 0.5 to 1 µM.
Turning to `Cc1nc2ccc(-c3ccc4c(c3)CN(C(=O)N3CCC(c5ccccc5)CC3)CCO4)cc2[nH]1` [Compound 170, 7-(2-methyl-1H-benzimidazol-6-yl)-4-[(4-phenylpiperidin-1-yl)carbonyl]-2,3,4,5-tetrahydro-1,4-benzoxazepine], the values for the IC50 on mTORC1 (mTOR/GbL/Raptor) and on PI3Kα were 0.05 to 0.25 µM and 1 to 3 µM, respectively.
The corresponding values for `Cc1nc2ccc(-c3ccc4c(c3)CN(C(=O)N3CCN(c5ncccn5)CC3)CCO4)cc2[nH]1` [Compound 166, 7-(2-methyl-1H-benzimidazol-6-yl)-4-[(4-pyrimidin-2-ylpiperazin-1-yl)carbonyl]-2,3,4,5-tetrahydro-1,4-benzoxazepine] are 0.7 to 2.6 µM and 0.2 to 0.5 µM.
For `CCNc1nc2ccc(-c3ccc4c(c3)CN(C(=O)N3CCC(=O)CC3c3cccc(F)c3)CCO4)cc2[nH]1` (centres unmarked) [Compound 30, 1-({7-[2-(ethylamino)-1H-benzimidazol-6-yl]-2,3-dihydro-1,4-benzoxazepin-4(5H)-yl}carbonyl)-2-(3-fluorophenyl)piperidin-4-one] the same measures were ≤ 0.05 µM and ≤ 0.075 µM.
Turning to `Cc1nc2ccc(-c3ccc4c(c3)CN(C(=O)N3CCC(c5noc(C)n5)CC3)CCO4)cc2[nH]1` [Compound 162, 7-(2-methyl-1H-benzimidazol-6-yl)-4-{[4-(5-methyl-1,2,4-oxadiazol-3-yl)piperidin-1-yl]carbonyl}-2,3,4,5-tetrahydro-1,4-benzoxazepine], the IC50 was 0.25 to 0.7 µM on mTORC1 (mTOR/GbL/Raptor) and 1 to 3 µM at PI3Kα.
The corresponding values for `Cc1nc2ccc(-c3ccc4c(c3)CN(C(=O)N3CCCCC3c3cc(F)c(F)c(F)c3)CCO4)cc2[nH]1` (centres unmarked) [Compound 129, 7-(2-methyl-1H-benzimidazol-6-yl)-4-{[2-(3,4,5-trifluorophenyl)piperidin-1-yl]carbonyl}-2,3,4,5-tetrahydro-1,4-benzoxazepine] are ≤ 0.05 µM and 0.075 to 0.2 µM.
